Some test systems named below: 786-0 renal; A498 renal; EKVX NSCLC; HCT-15 colon; MDA-MB-231 breast; OVCAR-4 ovarian; OVCAR-5 ovarian; SK-MEL-28 melanoma; SK-OV-3 ovarian; UO-31 renal.
Common to all, as to experiment: DTP human tumour cell line panel, 48 h

The results in this text go back to PubChem BioAssay (NCI).

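Growth conditions: 96-well plates. Treatment: test compound, 48 hours, 5 concentrations. Analysis: linear interpolation between bracketing concentrations; unreached endpoints set to highest concentration. GI50 marks 50% less growth. TGI: total growth inhibition.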 Some results are limits rather than exact numbers.

As to `COc1cc(-c2oc3c(OC)c(O)cc(O)c3c(=O)c2OC)ccc1O`, the TGI was greater than 100 µM in the assay on 786-0 renal; 17.2 µM in the assay with A498 renal; 72.5 µM in the assay on EKVX NSCLC; greater than 100 µM with HCT-15 colon; greater than 100 µM in the assay on MDA-MB-231 breast; 87.7 µM in the assay on OVCAR-4 ovarian. The TGI with OVCAR-5 ovarian was 78.7 µM; with SK-MEL-28 melanoma, greater than 100 µM; in the assay with SK-OV-3 ovarian it was 9.15 µM; with UO-31 renal, 14.8 µM.

For the compound `Nc1ccccc1C#C/C=C\C#Cc1ccccc1F`, the GI50 with 786-0 renal was 9.28 µM; in the assay on A498 renal, 7.66 µM; in the assay on EKVX NSCLC it was 10.8 µM; in the assay with HCT-15 colon it was 5170 nM; in the assay on MDA-MB-231 breast, 10.1 µM; with OVCAR-4 ovarian it was 24400 nM. The GI50 is 9.31 µM with OVCAR-5 ovarian, 18 µM in the assay on SK-MEL-28 melanoma, 16.7 µM in the assay on SK-OV-3 ovarian and 11.9 µM with UO-31 renal. The TGI is 23.6 µM in the assay on 786-0 renal; 21 µM with A498 renal; 53.2 µM with EKVX NSCLC; 19.7 µM in the assay with HCT-15 colon; 25.4 µM in the assay with MDA-MB-231 breast; greater than 100 µM in the assay with OVCAR-4 ovarian. Also, the concentration for total growth inhibition (TGI) was 23.9 µM in the assay with OVCAR-5 ovarian, 75.1 µM in the assay on SK-MEL-28 melanoma, 46 µM in the assay on SK-OV-3 ovarian and 35 µM in the assay with UO-31 renal.

On to `CN(C)N=Nc1nn(C(=O)Nc2ccc(Cc3ccccc3)cc2)c2ccccc12`, for which the GI50 is 5.25 µM in the assay with 786-0 renal; greater than 58.9 µM in the assay with A498 renal; 396 nM in the assay with HCT-15 colon; 1.37 µM in the assay with MDA-MB-231 breast; greater than 21.6 µM in the assay with OVCAR-5 ovarian; greater than 100 µM in the assay on SK-OV-3 ovarian. Also, the GI50 in the assay on UO-31 renal was 3.23 µM. Besides, the total growth inhibition concentration (TGI) with 786-0 renal, in the assay with A498 renal, with HCT-15 colon, in the assay on MDA-MB-231 breast, with OVCAR-4 ovarian and in the assay with OVCAR-5 ovarian was greater than 100 µM each time. Moreover, the total growth inhibition concentration (TGI) with SK-MEL-28 melanoma was greater than 100 µM; in the assay with SK-OV-3 ovarian, greater than 100 µM; with UO-31 renal, greater than 79 µM.

Consider `O=C1NC(SCc2ccc(F)cc2)=N/C1=C/c1cccc(OCc2ccc(Cl)cc2)c1`, for which the GI50 with 786-0 renal is 2.88 µM; in the assay with A498 renal, 3.53 µM; in the assay on EKVX NSCLC, 8.86 µM; in the assay on HCT-15 colon it was 55300 nM; in the assay with MDA-MB-231 breast, 24.6 µM; in the assay with OVCAR-4 ovarian, 2070 nM. Moreover, the GI50 with OVCAR-5 ovarian is greater than 100 µM; in the assay on SK-MEL-28 melanoma, greater than 100 µM; in the assay on SK-OV-3 ovarian, 36.9 µM. The TGI was 8.8 µM in the assay on 786-0 renal; 26.2 µM with A498 renal; greater than 100 µM in the assay with EKVX NSCLC; greater than 100 µM in the assay on HCT-15 colon; greater than 100 µM in the assay on MDA-MB-231 breast; 4.85 µM in the assay with OVCAR-4 ovarian. Moreover, the total growth inhibition concentration (TGI) in the assay with OVCAR-5 ovarian, in the assay on SK-MEL-28 melanoma and with SK-OV-3 ovarian was greater than 100 µM throughout.

In the case of `COC1OC(C(C)O)C2OC(C)(C)OC12` (configuration not stated), the concentration for total growth inhibition (TGI) with 786-0 renal, with A498 renal, with EKVX NSCLC, with HCT-15 colon, in the assay with MDA-MB-231 breast and in the assay on OVCAR-4 ovarian was greater than 100 µM each time. Besides, the TGI in the assay with OVCAR-5 ovarian, with SK-MEL-28 melanoma, in the assay on SK-OV-3 ovarian and with UO-31 renal was greater than 100 µM in each case.

Turning to `COc1cc2c(cc1OCCCCCn1c3ccccc3c3ccccc31)N=C[C@@H]1CCCN1C2=O`, the GI50 in the assay with 786-0 renal is 1.73 µM; in the assay on A498 renal it was 1.77 µM; in the assay with EKVX NSCLC, 5.27 µM; with HCT-15 colon, 1670 nM; in the assay with MDA-MB-231 breast it was 1.73 µM; with OVCAR-4 ovarian it was 3090 nM. Moreover, the GI50 is 2.42 µM in the assay with OVCAR-5 ovarian, 1.8 µM in the assay on SK-MEL-28 melanoma, 4.57 µM in the assay with SK-OV-3 ovarian and 1.52 µM with UO-31 renal. Besides, the TGI is 3.2 µM with 786-0 renal; 3.69 µM with A498 renal; 18.7 µM in the assay on EKVX NSCLC; 3.48 µM with HCT-15 colon; 3.69 µM with MDA-MB-231 breast; 12.6 µM in the assay on OVCAR-4 ovarian. Further, the TGI worked out at 5.49 µM in the assay with OVCAR-5 ovarian, 3.5 µM with SK-MEL-28 melanoma, 16.8 µM with SK-OV-3 ovarian and 2.93 µM in the assay with UO-31 renal.

As for `Nc1cc(-c2ccccc2)n(C(=O)Nc2ccc(Oc3ccccc3)cc2)n1`, the GI50 in the assay on 786-0 renal is 29.5 µM; in the assay on A498 renal it was greater than 100 µM; in the assay on EKVX NSCLC, greater than 100 µM; in the assay on HCT-15 colon, greater than 100000 nM; in the assay with MDA-MB-231 breast, 27.3 µM; in the assay on OVCAR-4 ovarian, 2910 nM. Further, the GI50 was 96.3 µM in the assay with OVCAR-5 ovarian, 1.62 µM in the assay with SK-MEL-28 melanoma, 68.9 µM with SK-OV-3 ovarian and 52.5 µM in the assay on UO-31 renal. The TGI in the assay with 786-0 renal is greater than 100 µM; in the assay on A498 renal, greater than 100 µM; in the assay on EKVX NSCLC, greater than 100 µM; in the assay on HCT-15 colon it was greater than 100 µM; in the assay on MDA-MB-231 breast it was greater than 100 µM; in the assay on OVCAR-4 ovarian, 27 µM. Moreover, the TGI in the assay with OVCAR-5 ovarian was greater than 100 µM; with SK-MEL-28 melanoma, 39.2 µM; in the assay on SK-OV-3 ovarian it was greater than 100 µM; in the assay on UO-31 renal it was greater than 100 µM.

As to `COc1ccc(OC)c(/C=N/N=C2\C(=O)Nc3c(Cl)cc(Cl)cc32)c1`, the TGI in the assay on 786-0 renal, in the assay with A498 renal, in the assay on EKVX NSCLC, in the assay with HCT-15 colon, in the assay with MDA-MB-231 breast and with OVCAR-4 ovarian was greater than 100 µM throughout. In addition, the TGI with OVCAR-5 ovarian, in the assay on SK-MEL-28 melanoma, with SK-OV-3 ovarian and in the assay with UO-31 renal was greater than 100 µM throughout.

As to `Cc1ccc(-c2c3c(N)c4c(nc3nc3c2c(C)nn3-c2ccccc2)CCC4)cc1`, the GI50 in the assay with 786-0 renal is 1.87 µM; in the assay with A498 renal, 16.1 µM; in the assay with HCT-15 colon, 2110 nM; in the assay with MDA-MB-231 breast it was 1.85 µM; in the assay on OVCAR-4 ovarian, 2980 nM; in the assay on OVCAR-5 ovarian, 5.69 µM. The GI50 with SK-MEL-28 melanoma was 4.44 µM; with SK-OV-3 ovarian it was 7.01 µM; with UO-31 renal it was 1.87 µM. Besides, the concentration for total growth inhibition (TGI) turned out to be 3.65 µM in the assay with 786-0 renal; 32.6 µM with A498 renal; 5.15 µM with HCT-15 colon; 3.98 µM with MDA-MB-231 breast; 11.9 µM with OVCAR-4 ovarian; 13.1 µM in the assay on OVCAR-5 ovarian. Moreover, the TGI in the assay on SK-MEL-28 melanoma stood at 9.69 µM; in the assay with SK-OV-3 ovarian it was 15 µM; in the assay with UO-31 renal, 3.94 µM.
